Reference: patent publication US20070191316A1, “VITAMIN D ANALOG - NEL, METHODS AND USES THEREOF” (WISCONSIN ALUMNI RESEARCH FOUNDATION, priority 2006, published 2007)
“Also recorded” adds a separate entry of the source.

Columns and labels:
[1] = tested on: cell differentiation; conditions: prior art; cited from earlier work
[2] = molecular target: T1, vitamin D receptors (Homo sapiens, UniProt P11473); conditions: prior-art patents; cited from earlier work
T1 sequence (P11473 1-427): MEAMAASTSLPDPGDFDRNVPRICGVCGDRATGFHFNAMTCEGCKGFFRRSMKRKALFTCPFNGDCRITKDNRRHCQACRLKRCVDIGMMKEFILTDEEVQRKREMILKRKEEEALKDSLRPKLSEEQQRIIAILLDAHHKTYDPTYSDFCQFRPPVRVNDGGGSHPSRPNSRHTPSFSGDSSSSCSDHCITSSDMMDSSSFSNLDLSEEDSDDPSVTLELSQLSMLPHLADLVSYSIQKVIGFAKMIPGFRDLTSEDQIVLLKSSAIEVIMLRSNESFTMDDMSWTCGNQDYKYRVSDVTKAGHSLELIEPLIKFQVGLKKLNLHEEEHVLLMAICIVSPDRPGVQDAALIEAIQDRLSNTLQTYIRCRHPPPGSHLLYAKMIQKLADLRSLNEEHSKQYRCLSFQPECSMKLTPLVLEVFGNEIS

[3] = cited from earlier work; for calcemic activity as compared to 1α,25-dihydroxyvitamin D3: prior-art patents
[4] = PTH suppression and hypercalcemia; assay type: in vivo, Sprague-Dawley rats; conditions: normal rats; expected
Experimental: (E) PTH Suppression and Hypercalcemia
Adult, female Sprague-Dawley rats are obtained from Harlan (Madison, Wis.).
Upon receipt, the animals are identified by individual tail marks. Animals may then be housed in suspended, stainless steel, wire-bottom cages. Each cage may contain one animal. The animal rooms are maintained at a temperature of 68 to 72° F. and a relative humidity of 25 to 75%. The holding rooms are set to provide 12 hours of light per day. Water and a purified rodent diet (Suda et al., Purified Rodent Diet-Diet 11) containing […] 0.3% phosphorus and fat soluble vitamins A, D, E and K are provided ad libitum
Animals are randomly assigned to treatment groups (5 animals/group). All doses are administered intraperitoneally in 100 microliters of propylene glycol. […]
Twenty-four hours after the final dose, blood is collected from the tail artery and the concentration of bioactive serum PTH is measured using the rat BioActive Intact PTH ELISA Kit from Immutopics, Inc. (San Clemente, Calif.).
Twenty-four hours after the final dose, approximately 1 ml of blood is collected from the tail artery of each experimental animal. […] The level of calcium is determined by diluting the serum into 0.1% lanthum chloride and measuring the absorbance on an atomic absorption spectrophotometer (Perkin Elmer Model 3110, Shelton, Conn.).

[5] = tested on: Human promyelocytic leukemia (HL60) cells; experiment: HL-60 differentiation (nitro blue tetrazolium reduction); assay type: cell-based; conditions: 4 days, NBT reduction, FIG. 4
Experimental: FIG. 4 is a graph comparing the percent HL-60 cell differentiation as a function of the concentration of NEL with that of 1,25(OH)2D3.
(B) HL-60 Differentiation
The study drugs were dissolved in ethanol and the concentrations determined using UV spectrophotometry. Serial dilutions were prepared so that a range of drug concentrations could be tested without changing the final concentration of ethanol (≦0.2%) present in the cell cultures.
Human promyelocytic leukemia (HL60) cells were grown in RPMI-1640 medium containing 10% fetal bovine serum. The cells were incubated at 37° C. in the presence of 5% CO2.
HL60 cells were plated at 1.2×10^5 cells/ml. Eighteen hours after plating, cells in duplicate were treated with drug. Four days later, the cells were harvested and a nitro blue tetrazolium reduction assay was performed (Collins et al., 1979; J. Exp. Med. 149:969-974). The percentage of differentiated cells was determined by counting a total of 200 cells and recording the number that contained intracellular black-blue formazan deposits. Verification of differentiation to monocytic cells was determined by measuring phagocytic activity (data not shown).

[6] = molecular target: T2, full-length recombinant rat vitamin D receptor (Rattus norvegicus, UniProt P13053); experiment: Vitamin D receptor competitive binding with [3H]-1,25-(OH)2-D3; conditions: competition with [3H]-1,25-(OH)2-D3, recombinant rat receptor; FIG. 1
T2 construct: Full-length recombinant rat receptor was expressed in E. coli BL21(DE3) Codon Plus RIL cells; histidine tag (C); made in house; host or cells: E. coli BL21(DE3) Codon Plus RIL
T2 sequence (P13053 1-423): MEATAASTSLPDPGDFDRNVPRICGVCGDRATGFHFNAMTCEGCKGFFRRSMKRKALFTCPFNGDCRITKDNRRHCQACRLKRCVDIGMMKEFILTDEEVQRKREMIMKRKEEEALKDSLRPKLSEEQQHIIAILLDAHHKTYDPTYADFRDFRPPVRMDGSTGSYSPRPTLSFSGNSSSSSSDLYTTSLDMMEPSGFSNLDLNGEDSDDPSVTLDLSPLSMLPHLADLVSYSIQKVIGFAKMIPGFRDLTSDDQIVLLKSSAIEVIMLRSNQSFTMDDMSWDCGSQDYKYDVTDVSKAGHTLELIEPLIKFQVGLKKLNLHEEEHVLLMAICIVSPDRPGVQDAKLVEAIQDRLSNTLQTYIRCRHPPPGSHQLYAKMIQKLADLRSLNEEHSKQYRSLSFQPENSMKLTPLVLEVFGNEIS
Experimental: The first system was a nickel affinity resin that utilizes the C-terminal histidine tag on this protein. The protein that was eluted from this resin was further purified using ion exchange chromatography (S-Sepharose Fast Flow). Aliquots of the purified protein were quick frozen in liquid nitrogen and stored at −80° C. until use. For use in binding assays, the protein was diluted in TEDK50 (50 mM Tris, 1.5 mM EDTA, pH7.4, 5 mM DTT, 150 mM KCl) with 0.1% Chaps detergent. The receptor protein and ligand concentration was optimized such that no more than 20% of the added radiolabeled ligand was bound to the receptor.
The following day, 100 mcl of hydroxylapatite slurry (50%) was added to each tube and mixed at 10-minute intervals for 30 minutes. The hydroxylapaptite was collected by centrifugation and then washed three times with Tris-EDTA buffer (50 mM Tris, 1.5 mM EDTA, pH 7.4) containing 0.5% Titron X-100. After the final wash, the pellets were transferred to scintillation vials containing 4 ml of Biosafe II scintillation cocktail, mixed and placed in a scintillation counter. Total binding was determined from the tubes containing only radiolabeled ligand.

[7] = Bone calcium mobilization (serum calcium); assay type: in vivo, Sprague-Dawley rats; conditions: rats, four consecutive ip doses; equimolar or 27 times the dose of 1α,25-dihydroxyvitamin D3; FIG. 2
Excerpt: FIG. 2 is a bar graph comparing the bone calcium mobilization activity of NEL with that of 1,25(OH)2D3.
(§1) (D) Intestinal Calcium Transport and Bone Calcium Mobilization
(§2) Male, weanling Sprague-Dawley rats were placed on Diet 11 (0.47% Ca) diet+AEK for one week followed by Diet 11 (0.02% Ca)+AEK for 3 weeks. The rats were then switched to a diet containing 0.47% Ca for one week followed by two weeks on a diet containing 0.02% Ca. Dose administration began during the last week on 0.02% calcium diet. Four consecutive ip doses were given approximately 24 hours apart. Twenty-four hours after the last dose, blood was collected from the severed neck and the concentration of serum calcium determined as a measure of bone calcium mobilization. The first 10 cm of the intestine was also collected for intestinal calcium transport analysis using the everted gut sac method.

[8] = tested on: 24-hdyroxylase (24Ohase) gene promoter in ROS 17/2.8 (bone) cells; experiment: In vitro transcription assay (luciferase reporter); assay type: cell-based; conditions: Ros17/2.8 (bone) cells, 24-hydroxylase promoter-luciferase, 16 h; FIG. 5
Experimental: FIG. 5 is a graph comparing the in vitro transcription activity of NEL with that of 1,25(OH)2D3.
(C) In vitro Transcription Assay
Transcription activity was measured in ROS 17/2.8 (bone) cells that were stably transfected with a 24-hdyroxylase (24Ohase) gene promoter upstream of a luciferase reporter gene (Arbour et al., 1998). Cells were given a range of doses. Sixteen hours after dosing the cells were harvested and luciferase activities were measured using a luminometer. (RLU=relative luciferase units)

[9] = Intestinal calcium transport (everted gut sac method); assay type: in vivo, Sprague-Dawley rats; conditions: rats, four consecutive ip doses; equimolar or 27 times the dose of 1α,25-dihydroxyvitamin D3; FIG. 3
Excerpt: FIG. 3 is a bar graph comparing the intestinal calcium transport activity of NEL with that of 1,25(OH)2D3.
as §1, §2

Compound	cell differentiation activity [1]	binding activity to vitamin D receptors [2]	calcemic activity as compared to 1α,25-dihydroxyvitamin D3 [3]	further results
1α-hydroxy-2-methylene-19-nor-(20S)-homopregnacalciferol	relatively high	relatively high	little if any	–
1α-hydroxy-2-methylene-19-nor-bishomopregnacalciferol	relatively high	relatively high	little if any	–
C[C@H](CCCC(C)(C)O)[C@H]1CC[C@H]2/C(=C/C=C3C[C@@H](O)C[C@H](O)C3)CCC[C@]12C [1α,25-dihydroxy-19-nor-vitamin D3]	high potency	–	–	calcium mobilizing activity ([3]; prior art): very low
C=C1[C@H](O)CC(=C/C=C2\CCC[C@]3(C)[C@@H](CC)CC[C@@H]23)C[C@H]1O [1α-hydroxy-2-methylene-19-nor-pregnacalciferol]	relatively high	relatively high	little if any	–
C=C1[C@H](O)CC(=C/C=C2\CCC[C@]3(C)[C@@H]([C@H](C)CCCC(C)O)CC[C@@H]23)C[C@H]1O (stereo partly drawn) [NEL, (20R, 25S)-2-Methylene-19,26-dinor-1α,25-dihydroxyvitamin D3]	–	–	–	suppressing parathyroid hormone levels [4]: significant activity; inducing differentiation of HL-60 cells compared with 1α,25-dihydroxyvitamin D3 [5]: equally active; binding to the vitamin D receptor compared with 1α,25-dihydroxyvitamin D3 [6]: somewhat more active; also recorded: relatively high binding; bone calcium mobilization (serum calcium) compared with 1α,25-dihydroxyvitamin D3 [7]: limited calcemic activity; also recorded: very low ability to mobilize calcium from bone; stimulating transcription of a reporter gene compared with 1α,25-dihydroxyvitamin D3 [8]: equally active; intestinal calcium transport activity compared with 1α,25-dihydroxyvitamin D3 [9]: limited calcemic activity; also recorded: very low intestinal calcium transport activity
